Test results as given in ChEMBL document CHEMBL4823254, “Tetrahydroquinoline-Capped Histone Deacetylase 6 Inhibitor SW-101 Ameliorates Pathological Phenotypes in a Charcot-Marie-Tooth Type 2A Mouse Model” (J Med Chem, 2021).

Columns and labels:
[1] = Stability in CD1 mouse pooled liver microsomes assessed as parent compound remaining measured at 60 mins in presence of NADPH by LC-MS/MS analysis; type: ADME, Microsome; settings: CD1, mouse, pooled liver microsomes, read-out: Stabilty
Histone deacetylase 11 = molecular target: T1, Histone deacetylase 11 (Homo sapiens, UniProt Q96DB2); assay: Inhibition of recombinant human HDAC11 expressed in HEK293T/17 cells using Boc-Lys(TFA)-AMC as substrate preincubated for 10 mins followed by substrate addition and measured after 30 mins by fluorescence-based assay
T1 sequence (Q96DB2 whole entry): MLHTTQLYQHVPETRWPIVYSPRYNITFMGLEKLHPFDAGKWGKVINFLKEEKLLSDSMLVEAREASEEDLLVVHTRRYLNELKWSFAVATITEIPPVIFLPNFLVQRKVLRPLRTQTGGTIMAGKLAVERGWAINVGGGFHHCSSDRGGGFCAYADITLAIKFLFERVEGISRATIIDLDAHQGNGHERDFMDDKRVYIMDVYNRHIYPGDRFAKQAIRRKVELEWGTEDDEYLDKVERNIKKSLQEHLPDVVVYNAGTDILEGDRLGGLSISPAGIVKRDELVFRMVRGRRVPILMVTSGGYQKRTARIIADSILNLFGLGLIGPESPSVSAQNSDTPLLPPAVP

Histone deacetylase 1 = Histone deacetylase 1 (Homo sapiens, UniProt Q13547)
Sequence of Histone deacetylase 1 (Q13547 whole entry): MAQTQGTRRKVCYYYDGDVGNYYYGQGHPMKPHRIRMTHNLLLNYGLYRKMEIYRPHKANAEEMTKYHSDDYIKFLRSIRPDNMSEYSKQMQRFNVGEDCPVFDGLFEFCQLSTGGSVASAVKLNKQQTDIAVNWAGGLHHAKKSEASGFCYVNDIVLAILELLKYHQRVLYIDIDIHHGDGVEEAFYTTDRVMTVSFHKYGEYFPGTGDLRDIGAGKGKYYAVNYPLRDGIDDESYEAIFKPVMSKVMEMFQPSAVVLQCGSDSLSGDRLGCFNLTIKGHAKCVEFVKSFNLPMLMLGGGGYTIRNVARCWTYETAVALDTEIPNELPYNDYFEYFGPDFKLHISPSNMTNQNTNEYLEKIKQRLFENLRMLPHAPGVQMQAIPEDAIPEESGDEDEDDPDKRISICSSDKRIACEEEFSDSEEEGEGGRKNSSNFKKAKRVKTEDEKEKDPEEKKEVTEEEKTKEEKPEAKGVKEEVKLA
Description: Inhibition of Nanoluc-fused HDAC1 (unknown origin) expressed in HEK293 cells incubated for 2 hrs by NANOBRET assay

remaining at 1 h [1]: 56% | IC50 (Histone deacetylase 11): 5.31 µM | IC50 (Histone deacetylase 1): 4.83 µM
SMILES: NC(=O)c1ccc2c(c1)CCCN2Cc1ccc(C(=O)NO)cc1
